Source: PMC7848973, “In Vivo Efficacy and Metabolism of the Antimalarial Cycleanine and Improved In Vitro Antiplasmodial Activity of Semisynthetic Analogues” (Antimicrobial Agents and Chemotherapy, 2021)
Like-named read-outs stand apart in the source and are kept apart here. Marks after values point to notes of the source that are not given here.

Assays:
[1] = system: P. falciparum chloroquine-sensitive strain D6; details: read-out: IC50 against P. falciparum strain D6; cited from earlier work
[2] = system: human oral epidermoid carcinoma (KB) cells; set-up: method as in PMID 9917283; details: cited from earlier work
[3] = system: P. falciparum Dd2 chloroquine-resistant strain; experiment: In vitro antiplasmodial activity, SYBR green I fluorescence assay; format: cell-based, Plasmodium falciparum
Experimental: Normalized fluorescence signals were measured against controls with 1% DMSO (100% growth) and after exposure to a supralethal concentration (10 μM) of chloroquine (0% growth). Determination of the 50% inhibitory concentration (IC50) was performed from a log concentration versus the mean normalized fluorescence signal curve using GraphPad Prism software (v5.0). Each biological replicate consisted of three technical repeats, with three independent biological replicates performed.

[4] = system: chloroquine-resistant P. falciparum strain W2; details: cited from earlier work
[5] = system: human ovarian epithelial (HOE) cells; details: cited from earlier work
[6] = system: Plasmodium berghei; experiment: Suppressive activity during early P. berghei infection of mice; format: in vivo; details: suppressive model; for Parasitemia after infection for 96 h / MST: mean ± SEM, n = 6; for MST: over 30 days
Experimental: (§1) (i) Malaria parasite. Chloroquine-sensitive strains of P. berghei were sourced from the National Institute of Medical Research (NIMER), Yaba Lagos, Nigeria, and maintained by subpassage in mice.
(§2) (ii) Parasite inoculation. Each mouse was inoculated intraperitoneally with about 1 × 10^7 P. berghei parasitized erythrocytes in 0.2 ml of infected blood (5 × 10^7 P. berghei erythrocytes/ml) according to published procedure ([39]).
(§3) (iii) Experimental animals. Female and male Swiss albino mice (18 to 25 g) were obtained from the University of Uyo’s animal house. Before use, mice were kept in cages and acclimatized for 10 days. All mice were kept in cross-ventilated rooms at room temperature. The care and use of mice were performed in accordance with the National Institutes of Health Guide for the Care and Use of Laboratory Animals (1996). This investigation was approved by the University of Uyo’s Animal Ethics Committee.
(§4) (v) Drug administration. Cycleanine, chloroquine, and pyrimethamine were prepared in water and administered orally with the aid of a stainless metallic feeding cannula.
(vi) Suppressive activity of cycleanine. The schizontocidal activity of cycleanine and chloroquine against early P. berghei infection in mice was measured according to an established protocol ([25], [41], [42]). On the first day, 20 to 24 mice were infected with the parasite and randomly separated into four groups. The mice in groups 1 and 2 were given 25 and 50 mg/kg of cycleanine, respectively, those in group 3 were given 5 mg/kg of chloroquine (positive control), and those in group 4 were given distilled water (10 ml/kg, negative control) for four consecutive days. Thin films were made from the tail blood on the fifth day. Parasitized erythrocytes were counted in stained films (Giemsa stain) under a microscope. The average suppression of parasitemia (%) was calculated as follows: average % parasitemia positive control−average % parasitemia negative control/average % parasitemia negative control×100
The MST (in days) of the mice in each group was determined over a period of 30 days.

[7] = system: Plasmodium berghei; experiment: Curative activity during established P. berghei infection of mice; format: in vivo; details: curative model, n = 6; for MST: over 30 days
Experimental: as §1, §2, §3, §4
(viii) Curative activity of cycleanine. The curative activity of cycleanine was assessed according to a method described previously ([42], [44]). P. berghei was injected intraperitoneally into another 24 mice on the first day. Three days later, the mice were also separated into four groups of six mice per group. Groups 1 and 2 were administered different doses of cycleanine, 25 and 50 mg/kg, respectively, group 3 was given 5 mg/kg chloroquine (positive control), and group 4 was given 10 ml/kg distilled water (negative control). Cycleanine and chloroquine were given once a day for 5 days. Mouse tail blood samples were collected on each day, and Giemsa-stained thin smears were prepared to determine the parasitemia level. The MST of the mice in each group was determined over a period of 30 days.

[8] = system: HCT-116 human colon carcinoma cells; details: cited from earlier work
[9] = system: Plasmodium berghei; experiment: Prophylactic activity in P. berghei infection of mice; format: in vivo; details: prophylactic model; for Parasitemia level after infection for 72 h / MST: mean ± SEM, n = 6; for MST: over 30 days
Experimental: as §1, §2, §3, §4
(vii) Prophylactic activity of cycleanine. The prophylactic activity of cycleanine was evaluated using a previously described method ([42], [43]). The mice were randomly divided into four groups of six mice per group. Groups 1 and 2 were given 25 and 50 mg/kg of cycleanine, respectively, group 3 was given 1.2 mg/kg of pyrimethamine (positive control), and group 4 was given 10 ml/kg of distilled water (negative control). Administration of cycleanine or the drug continued for three consecutive days. On the fourth day, the mice were inoculated with P. berghei. The parasitemia level was evaluated by blood smears after 3 days. The survival times (days) of the mice were recorded over a period of 30 days, and MST were calculated.

[10] = Acute median lethal dose (LD50) of cycleanine in mice; format: in vivo; details: 24 h, intraperitoneal
Experimental: as §3
(iv) Determination of median lethal dose (LD50) of cycleanine. The median lethal dose (LD50) of cycleanine was determined using albino mice by the intraperitoneal (i.p.) route ([40]). Different doses of cycleanine (10 to 5,000 mg/kg) were intraperitoneally administered to groups of three mice each. The mice were monitored for manifestation of physical signs of toxicity, including decrease of motor activity, writhing, decrease of body/limb tone, weakness, and death. The number of deaths in each group within 24 h was recorded. The LD50 value was calculated as the geometrical means of the minimum dose producing 100% mortality and the maximum dose producing 0%.

[11] = system: P. falciparum chloroquine-sensitive clone 3D7; set-up: method as in PMID 26594753; details: read-out: IC50 against P. falciparum chloroquine-sensitive clone 3D7; cited from earlier work
[12] = set-up: method as in earlier work; details: mice; cited from earlier work
[13] = Plasmodium falciparum, DD2, chloroquine-resistant strain, mean ± SD, n = 3 independent biological repeats, read-out: IC50 against P. falciparum strain Dd2
[14] = read-out: CC50 against HOE, human ovarian epithelial (HOE) cells
[15] = Plasmodium falciparum, DD2, read-out: IC50 against P. falciparum strain Dd2
[16] = chloroquine-resistant strain, ref 16, read-out: IC50 against P. falciparum strain W2
[17] = chloroquine-resistant strain, ref 18, read-out: IC50 against P. falciparum strain W2
[18] = 25 mg/kg oral, mean ± SEM, 25 mg/kg
[19] = 50 mg/kg oral, mean ± SEM, 50 mg/kg

**Q.** For `COc1cc2c3c4c1Oc1cc5c(cc1O4)C(Cc1ccc(O)c(c1)Oc1ccc(cc1)CC3NCC2)N(C)CC5` (centres unmarked) [2′-Norcocsuline (3), 2′-norcocsuline], which IC50 [1] is on record?
**A.** 0.048 µM

**Q.** What about the “CC50 against cancer cell line KB” value [2] of the same compound?
**A.** 3.8^b μM

**Q.** What about the IC50 [3, 13] of the same compound?
**A.** 7 ± 1.6 µM

**Q.** What about the IC50 ([4]; read-out: IC50 against chloroquine-resistant clone W2) of the same compound?
**A.** 0.248 µM

**Q.** And the CC50 [5, 14]?
**A.** 8 ± 0.2 µM

**Q.** What does the source list for `COc1cc2c3c(c1OC)Oc1ccc(cc1)C[C@H]1c4c(c(CN(C)C)c(OC)c(OC)c4Oc4ccc(cc4)C[C@@H]3N(C)CC2)CCN1C` [5-[(Dimethylamino)methyl]cycleanine (4), 5-[(Dimethylamino)methyl]cycleanine]?
**A.** IC50 [3, 13]: 0.7 ± 0.1 µM; CC50 [5, 14]: 10 ± 0.2 µM

**Q.** Which IC50 [3, 13] does the source give for `C#CCNCc1c2c3c(c(OC)c1OC)Oc1ccc(cc1)C[C@H]1c4c(cc(OC)c(OC)c4Oc4ccc(cc4)C[C@@H]3N(C)CC2)CCN1C` [5-[(Propargylamino)methyl]cycleanine (5), 5-[(Propargylamino)methyl]cycleanine] here?
**A.** 1.8 ± 0.2 µM

**Q.** And the CC50 [5, 14]?
**A.** 32 ± 1.6 µM

**Q.** Which IC50 [1] does the source give for `CCN(CC)CCCC(C)Nc1ccnc2cc(Cl)ccc12` (centres unmarked) [Chloroquine, reference compound] here?
**A.** 0.006 µM

**Q.** And the “Suppression of parasitemia at 96 h” value ([6]; 5 mg/kg per day oral)?
**A.** 94.0%

**Q.** And the “Parasitemia after infection for 96 h” value ([6]; 5 mg/kg per day oral)?
**A.** 2.0 ± 0.8^b %

**Q.** And the MST ([6]; 5 mg/kg per day oral)?
**A.** 30.0 ± 0.0^b days

**Q.** What about the “CC50 against cancer cell line KB” value [2] of the same compound?
**A.** 33.7^b μM

**Q.** And the IC50 [3, 15]?
**A.** 0.18 ± 0.03 µM

**Q.** And the IC50 [4, 16]?
**A.** 0.135 µM

**Q.** And the “Parasitaemia Day 3” value ([7]; 5 mg/kg oral, mean ± SEM)?
**A.** 12.4 ± 0.5%

**Q.** What about the “Parasitaemia Day 4” value ([7]; 5 mg/kg oral, mean ± SEM) of the same compound?
**A.** 2.1 ± 0.2%

**Q.** And the “Parasitaemia Day 6” value ([7]; 5 mg/kg oral)?
**A.** 0.0%

**Q.** And the “Parasitaemia Day 7” value ([7]; 5 mg/kg oral)?
**A.** 0.0%

**Q.** And the “Parasitaemia Day 5” value ([7]; 5 mg/kg oral, 5 mg/kg)?
**A.** 0%

**Q.** And the MST ([7]; 5 mg/kg oral, mean ± SEM, 5 mg/kg)?
**A.** 30 days

**Q.** Which IC50 [3, 15] does the source give for `COc1cc2c3c(c1O)Oc1ccc(cc1)C[C@@H]1c4c(cc(OC)c(O)c4Oc4ccc(cc4)C[C@H]3N(C)CC2)CCN1C` [Isochondodendrine (2), isochondodendrine] here?
**A.** 6.1 ± 1.3 µM

**Q.** What about the CC50 [8] of the same compound?
**A.** 29 µM

**Q.** And the IC50 [4, 17]?
**A.** 0.2 µM

**Q.** What about the CC50 [5] of the same compound?
**A.** 10.5 ± 1.2 µM

**Q.** For `CCc1nc(N)nc(N)c1-c1ccc(Cl)cc1` [Pyrimethamine, reference compound], which “Suppression of parasitemia level after infection for 72 h” value (“Suppression of parasitemia level” for short) ([9]; 1.2 mg/kg per day oral) is on record?
**A.** 76.2%

**Q.** And the “Parasitemia level after infection for 72 h” value ([9]; 1.2 mg/kg per day oral)?
**A.** 4.8 ± 1.1^b %

**Q.** What about the MST ([9]; 1.2 mg/kg per day oral) of the same compound?
**A.** 29.8 ± 0.2^b days

**Q.** With cycleanine as the compound, how does the “Acute median lethal dose (LD50)” value [10] read?
**A.** 4500 mg/kg

**Q.** And the IC50 [1]?
**A.** 0.07 µM

**Q.** What about the “Suppression of parasitemia at 96 h” value ([6]; 25 mg/kg per day oral) of the same compound?
**A.** 44.7%

**Q.** What about the “Parasitemia after infection for 96 h” value ([6]; 25 mg/kg per day oral) of the same compound?
**A.** 15.7 ± 1.8^b %

**Q.** What about the MST ([6]; 25 mg/kg per day oral) of the same compound?
**A.** 24.7 ± 1.1^b days

**Q.** And the “Suppression of parasitemia at 96 h” value ([6]; 50 mg/kg per day oral)?
**A.** 86.5%

**Q.** What about the “Parasitemia after infection for 96 h” value ([6]; 50 mg/kg per day oral) of the same compound?
**A.** 3.8 ± 0.7^b %

**Q.** What about the MST ([6]; 50 mg/kg per day oral) of the same compound?
**A.** 28.2 ± 0.9^b days

**Q.** What about the IC50 [11] of the same compound?
**A.** 0.08 µM

**Q.** And the “CC50 against cancer cell line KB” value [2]?
**A.** > 33.7 µM

**Q.** And the IC50 ([3]; chloroquine-resistant strain, mean ± SD, n = 3 independent biological repeats, read-out: IC50 against P. falciparum strain Dd2)?
**A.** 17.7 ± 2 µM

**Q.** What about the LD50 [12] of the same compound?
**A.** 1100 mg/kg

**Q.** What about the CC50 ([8]; read-out: CC50 against cancer cell line HCT, HCT-116 human colon carcinoma cells) of the same compound?
**A.** 531 µM

**Q.** And the IC50 [4, 16]?
**A.** 0.25 µM

**Q.** And the IC50 [4, 17]?
**A.** 4.5 µM

**Q.** What about the “Suppression of parasitemia level” value ([9]; 25 mg/kg per day oral) of the same compound?
**A.** 43.4%

**Q.** And the “Parasitemia level after infection for 72 h” value ([9]; 25 mg/kg per day oral)?
**A.** 11.5 ± 0.9^b %

**Q.** And the MST ([9]; 25 mg/kg per day oral)?
**A.** 23.0 ± 0.6^b days

**Q.** And the “Suppression of parasitemia level” value ([9]; 50 mg/kg per day oral)?
**A.** 59.0%

**Q.** What about the “Parasitemia level after infection for 72 h” value ([9]; 50 mg/kg per day oral) of the same compound?
**A.** 8.3 ± 1.0^b %

**Q.** And the MST ([9]; 50 mg/kg per day oral)?
**A.** 24.5 ± 0.6^b days

**Q.** What about the CC50 [5, 14] of the same compound?
**A.** 35 ± 0.1 µM

**Q.** And the “Parasitaemia Day 3” value ([7]; 25 mg/kg oral, mean ± SEM)?
**A.** 12.7 ± 1.7%

**Q.** What about the “Parasitaemia Day 5” value [7, 18] of the same compound?
**A.** 13.3%

**Q.** And the MST [7, 18]?
**A.** 21 days

**Q.** What about the “Parasitaemia Day 3” value ([7]; 50 mg/kg oral, mean ± SEM) of the same compound?
**A.** 15.5 ± 0.9%

**Q.** And the “Parasitaemia Day 6” value ([7]; 50 mg/kg oral, mean ± SEM)?
**A.** 6.0 ± 1.0%

**Q.** What about the “Parasitaemia Day 7” value ([7]; 50 mg/kg oral, mean ± SEM) of the same compound?
**A.** 3.7 ± 1.1%

**Q.** What about the “Parasitaemia Day 5” value [7, 19] of the same compound?
**A.** 10.5%

**Q.** And the MST [7, 19]?
**A.** 25 days
